In one series the target is T1, NHE3 (Homo sapiens, UniProt P48764).
T1 sequence (P48764 1-834): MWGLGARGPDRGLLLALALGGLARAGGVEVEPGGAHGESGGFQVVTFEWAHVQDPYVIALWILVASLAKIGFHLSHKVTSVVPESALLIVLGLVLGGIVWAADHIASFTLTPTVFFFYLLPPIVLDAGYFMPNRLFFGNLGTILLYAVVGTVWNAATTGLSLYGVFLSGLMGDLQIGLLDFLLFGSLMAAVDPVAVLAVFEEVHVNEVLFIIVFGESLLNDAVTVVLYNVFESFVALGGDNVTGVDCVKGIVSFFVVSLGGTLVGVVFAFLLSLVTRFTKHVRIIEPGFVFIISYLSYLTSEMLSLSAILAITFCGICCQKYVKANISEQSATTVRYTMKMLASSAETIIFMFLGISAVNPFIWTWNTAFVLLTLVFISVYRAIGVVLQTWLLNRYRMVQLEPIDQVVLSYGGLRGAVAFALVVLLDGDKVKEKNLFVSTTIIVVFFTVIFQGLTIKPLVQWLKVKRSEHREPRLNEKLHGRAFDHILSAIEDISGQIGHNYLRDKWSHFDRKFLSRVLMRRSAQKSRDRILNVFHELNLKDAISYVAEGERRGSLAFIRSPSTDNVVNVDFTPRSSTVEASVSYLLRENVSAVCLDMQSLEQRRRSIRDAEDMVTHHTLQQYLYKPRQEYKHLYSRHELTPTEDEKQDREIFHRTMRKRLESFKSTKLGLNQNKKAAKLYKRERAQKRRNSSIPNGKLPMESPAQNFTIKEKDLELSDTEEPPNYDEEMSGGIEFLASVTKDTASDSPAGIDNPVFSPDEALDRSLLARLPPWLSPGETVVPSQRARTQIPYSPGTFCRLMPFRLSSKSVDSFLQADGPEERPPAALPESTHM
Briefly: Recovery of intracellular pH (pHi) after acidification, BCECF fluorescence, NHE3. In kind it is cell-based. The following applies: inhibition of pH recovery after intracellular acidification; rate recorded for three minutes; BCECF-loaded cells. How it is done: In this test, the recovery in the intracellular pH (pHi) after an acidification is ascertained, which is initiated if the NHE is capable of functioning, even under bicarbonate-free conditions. For this purpose, the pHi was determined using the pH-sensitive fluorescent dye BCECF (Calbiochem, the precursor BCECF-AM is employed).
The cells were initially loaded with BCECF. The BCECF fluorescence was determined in a “Ratio Fluorescence Spectrometer” (Photon Technology International, South Brunswick, N.J., USA) at excitation wavelengths of 505 and 440 nm and an emission wavelength of 535 nm and converted into the pHi using calibration curves. The cells were incubated in NH4Cl buffer (pH 7.4) (NH4Cl buffer: 115 mM NaCl, 20 mM NH4Cl, 5 mM KCl, 1 mM CaCl2, 1 mM MgSO4, 20 mM Hepes, 5 mM glucose, 1 mg/ml BSA; a pH of 7.4 is adjusted with 1 M NaOH) even during the BCECF loading. The intracellular acidification was induced by adding 975 μl of an NH4Cl-free buffer (see below) to 25 μl aliquots of the cells incubated in NH4Cl buffer. The subsequent rate of pH recovery was recorded for two minutes with NHE1, five minutes with NHE2 and three minutes with NHE3. To calculate the inhibitory potency of the tested substances, the cells were initially investigated in buffers with which a complete or absolutely no pH recovery took place. For complete pH recovery (100%), the cells were incubated in Na^+-containing buffer (133.8 mM NaCl, 4.7 mM KCl, 1.25 mM CaCl2, 1.25 mM MgCl2, 0.97 mM Na2HPO4, 0.23 mM NaH2PO4, 5 mM Hepes, 5 mM glucose, a pH of 7.0 is adjusted with 1 M NaOH). To determine the 0% value, the cells were incubated in an Na^+-free buffer (133.8 mM choline chloride, 4.7 mM KCl, 1.25 mM CaCl2, 1.25 mM MgCl2, 0.97 mM K2HPO4, 0.23 mM KH2PO4, 5 mM Hepes, 5 mM glucose, a pH of 7.0 is adjusted with 1 M NaOH). The substances to be tested were made up in the Na^+-containing buffer. The recovery of the intracellular pH at each test concentration of a substance was expressed as a percentage of the maximum recovery. The IC50 value for the particular substance for the individual NHE subtypes was calculated from the pH recovery percentages using the Sigma-Plot program.

Counter-ions that a name gives are not always drawn.

Regarding `CC(=O)Nc1ccc(C2CN(C)Cc3c(Cl)cc(Cl)cc32)cc1` (stereo not shown), the melting point – broadly, the temperature, or range, at which the solid turns liquid – was in the range of 205 to 206 °C.
For `CN1Cc2c(Cl)cc(Cl)cc2C(c2ccc(S(N)(=O)=O)cc2)C1` (single isomer, unassigned; (+)) [Example 2a, (+)-4-(6,8-Dichloro-2-methyl-1,2,3,4-tetrahydro-isoquinolin-4-yl)-benzene-sulfonamide hydrochloride], at NHE3, the IC50 (commonly the concentration that inhibits the measured activity by half) amounted to 0.082 µM.
The compound `CN1Cc2c(Cl)cc(Cl)cc2C(c2cccc(S(N)(=O)=O)c2)C1` (single isomer, unassigned; (+)) [Example 2b, (+)-3-(6,8-Dichloro-2-methyl-1,2,3,4-tetrahydro-isoquinolin-4-yl)-benzene-sulfonamide hydrochloride] gave a 50% inhibitory concentration (IC50) against NHE3 of 0.026 µM.
Consider `CNC(=O)N(C)c1cccc(C2CN(C)Cc3c(Cl)cc(Cl)cc32)c1` (single isomer, unassigned; (+)) [Example 199], for which, at NHE3, inhibition was half-maximal at 0.252 µM (IC50).
For `CC(=O)Nc1ccc(C2CN(C)Cc3c(Cl)cc(Cl)cc32)cc1.Cl` (stereo not shown) [Example 1a, N-[4-(6,8-Dichloro-2-methyl-1,2,3,4-tetrahydro-isoquinolin-4-yl)-phenyl]-acetamide-hydrochloride], the melting point was 125 °C (dec.). Besides, at NHE3, the IC50 was 0.075 µM.
`CN1Cc2c(Cl)cc(Cl)cc2C(c2ccc(C(=O)O)cc2)C1` (stereo not shown) [Example 6, 4-(6,8-Dichloro-2-methyl-1,2,3,4-tetrahydro-isoquinolin-4-yl)-benzoic acid] gave a half-maximal inhibitory concentration (IC50) against NHE3 of 0.67 µM.
On NHE3, `CCNC(=O)c1ccc(C2CN(C)Cc3c(Cl)cc(Cl)cc32)cc1` (stereo not shown) [Example 7, 4-(6,8-Dichloro-2-methyl-1,2,3,4-tetrahydroisoquinolin-4-yl)-N-ethyl-benzamide, Trifluoroacetate] returned an IC50 of 0.25 µM.
At NHE3, `CN1Cc2c(Cl)cc(Cl)cc2C(c2ccc(N3CCOCC3)cc2)C1` (stereo not shown) [Example 10, 6,8-Dichloro-2-methyl-4-(4-morpholin-4-yl-phenyl)-1,2,3,4-tetrahydroisoquinoline, Trifluoroacetate] had an IC50 of 1 µM. Against the preceding compound, the IC50 is about 4-fold higher.
The same measure, in the same setting: to `CN1Cc2c(Cl)cc(Cl)cc2C(c2ccc(N)cc2)C1` (stereo not shown) [Example 17, 4-(6,8-Dichloro-2-methyl-1,2,3,4-tetrahydro-isoquinolin-4-yl)-phenylamine, Hydrochloride] belongs 0.049 µM.
On to `CCNC(=O)Nc1ccc(C2CN(C)Cc3c(Cl)cc(Cl)cc32)cc1` (stereo not shown) [Example 21, 1-[4-(6,8-Dichloro-2-methyl-1,2,3,4-tetrahydro-isoquinolin-4-yl)-phenyl]-3-ethylurea], for which the melting point lay within 218 to 220 °C. The compound also returned a concentration for half-maximal inhibition (IC50) against NHE3 of 0.814 µM.
For the compound `CC(=O)Nc1ccc(C2CN(C)Cc3c(C)cc(C)cc32)cc1` (stereo not shown) [Example 23, N-[4-(2,6,8-Trimethyl-1,2,3,4-tetrahydro-isoquinolin-4-yl)-phenyl]-acetamide], the 50% inhibitory concentration (IC50) at NHE3 turned out to be 1.51 µM. This counts as single-digit micromolar.
Take `CC(=O)Nc1ccc(C2CN(C)Cc3c(Cl)cc(Br)cc32)cc1` (stereo not shown) [Example 24, N-[4-(6-Bromo-8-chloro-2-methyl-1,2,3,4-tetrahydro-isoquinolin-4-yl)-phenyl]-acetamide]: the half-inhibitory concentration (IC50) against NHE3 was found to be 0.34 µM.
`CN1Cc2c(Cl)cc(Cl)cc2C(c2ccc(O)c(C(=O)O)c2)C1` (stereo not shown) [Example 29, 5-(6,8-Dichloro-2-methyl-1,2,3,4-tetrahydro-isoquinolin-4-yl)-2-hydroxy-benzoic acid]: the IC50 against NHE3 came out at 0.318 µM.
Take `CN1Cc2c(Cl)cc(Cl)cc2C(c2ccccc2N)C1` (stereo not shown) [Example 36, 2-(6,8-Dichloro-2-methyl-1,2,3,4-tetrahydro-isoquinolin-4-yl)-phenylamine]: the concentration for half-maximal inhibition (IC50) at NHE3 was found to be 0.274 µM.
In the case of `CN1Cc2c(Cl)cc(Cl)cc2C(c2ccc(NS(C)(=O)=O)cc2)C1` (stereo not shown) [Example 48], 0.349 µM corresponded to half-maximal inhibition at NHE3 (IC50).
Same read-out and setting: to `CCC(=O)Nc1cccc(C2CN(C)Cc3c(Cl)cc(Cl)cc32)c1` (stereo not shown) [Example 51] belongs 0.215 µM; to `CC(=O)N1CCC(C(=O)Nc2cccc(C3CN(C)Cc4c(Cl)cc(Cl)cc43)c2)CC1` (stereo not shown) [Example 60], 0.202 µM; to `CN1Cc2c(Cl)cc(Cl)cc2C(c2cccc(NS(=O)(=O)N(C)C)c2)C1` (stereo not shown) [Example 64], 0.507 µM.
As for `CNC(=S)Nc1ccccc1C1CN(C)Cc2c(Cl)cc(Cl)cc21` (stereo not shown) [Example 81, 1-[2-(6,8-Dichloro-2-methyl-1,2,3,4-tetrahydro-isoquinolin-4-yl)-phenyl]-3-methyl-thiourea, Trifluoroacetate], on NHE3, half-maximal inhibition (IC50) was put at 0.73 µM.
The same measure, in the same setting: for `CN1Cc2c(Cl)cc(Cl)cc2C(c2ccc(NS(=O)(=O)C(F)(F)F)cc2)C1` (stereo not shown) [Example 87] the value was 0.418 µM.
At NHE3, `Cc1nc(S(=O)(=O)Nc2cccc(C3CN(C)Cc4c(Cl)cc(Cl)cc43)c2)cn1C` (stereo not shown) [Example 97] displayed an IC50 of 0.308 µM.
The compound `CN1Cc2c(Cl)cc(Cl)cc2C(c2ccc(Cl)c(S(N)(=O)=O)c2)C1` (stereo not shown) [Example 99] gave a melting point of 122 °C.
`CN(C)CC(=O)Nc1ccc(C2CN(C)Cc3c(Cl)cc(Cl)cc32)cc1` (stereo not shown) [Example 113] came in with an IC50 against NHE3 of 0.279 µM.
The compound `CN1Cc2c(Cl)cc(Cl)cc2C(c2ccc(NC(=O)c3cc[nH]c3)cc2)C1` (stereo not shown) [Example 119] showed a half-inhibitory concentration (IC50) against NHE3 of 0.682 µM.
Still for that read-out and setting: for `CN1Cc2c(Cl)cc(Cl)cc2C(c2cccc(NC(=O)C3CCN(S(C)(=O)=O)CC3)c2)C1` (stereo not shown) [Example 144] the value was 0.695 µM; for `CN1Cc2c(Cl)cc(Cl)cc2C(c2cccc(NC(=O)c3cn[nH]c3)c2)C1` (stereo not shown) [Example 146], 0.024 µM; for `CN1Cc2c(Cl)cc(Cl)cc2C(c2cccc(NC(=O)N3CCCCC3)c2)C1` (stereo not shown) [Example 153], 0.602 µM.
In the case of `CN1Cc2c(Cl)cc(Cl)cc2C(c2ccc(NC(=O)N3CCOCC3)cc2)C1` (stereo not shown) [Example 183], on NHE3, the half-maximal inhibitory concentration (IC50) worked out at 0.597 µM.
For the compound `COC(=O)Nc1cccc(C2CN(C)Cc3c(Cl)cc(Cl)cc32)c1` (stereo not shown) [Example 207, [3-(6,8-Dichloro-2-methyl-1,2,3,4-tetrahydro-isoquinolin-4-yl)-phenyl]-carbamic acid methyl Ester—Hydrochloride Salt], at NHE3, inhibition was half-maximal at 0.186 µM (IC50).

Values taken from US6911453B2 (Aventis Pharma Deutschland GmbH, priority 2001, dated 2005).
